{"source": "patent US6608065B1", "about": "“Use of cGMP phosphodiesterase inhibitors in methods to treat female sexual dysfunction” (ICOS Corporation, priority 1995, dated 2003)"}
{"smiles": "C[C@H]1C(=O)N2[C@H](c3ccc4c(c3)OCO4)c3[nH]c4ccccc4c3C[C@@H]2C(=O)N1C", "note": "[Compound B, (3S, 6R, 12aR)-2,3,6,7,12,12a-hexahydro-2,3-dimethyl-6-(3,4-methylenedioxyphenyl)-pyrazino[2′, 1′:6,1]pyrido[3,4-b]indole-1,4-dione]", "values": [{"measurement": "melting point", "value": "307 to 309", "unit": "°C"}]}
{"smiles": "C[C@@H]1NC(=O)[C@H]2Cc3c([nH]c4ccccc34)[C@@H](c3ccc4c(c3)OCO4)N2C1=O", "note": "[Example 3, (3S, 6R,12aR)-2,3,6,7,12,12a-Hexahydro-3-methyl-6-(3,4-methylenedioxyphenyl)-pyrazino[2′, 1′:6,1]pyrido[3,4-b]indole-1,4-dione]", "values": [{"measurement": "melting point", "value": "319 to 321", "unit": "°C"}]}
